Experimental data reported in US5834012A, “Lipid complexed topoisomerase I inhibitors” (Perez-Soler; Roman, priority 1995, dated 1998).
“And” between values parts separate entries of the source, which are not always exact repeats. Equal entries are not always repeated. “Also recorded” adds a separate entry of the source. Blank lines part the entries; values can stand above or below the molecule they belong to.

How the values were obtained:
[1] = test system: DIFI cells; test: MTT cytotoxicity, DIFI cells; format: cell-based, human
Procedure: (§1) Cell Lines. MDA-Panc3 cells(pancreas carcinoma), DiFi cells (colon carcinoma), and KB cells (squamous carcinoma) were used for in vitro data.
(§2) Cytotoxicity Assay. 8,000 cells/well in 135 ul of Dubelco's MEM with 10% fetal bovine serum (FBS) was added to 96-well culture plates. The plates were incubated for 14 h at 37° in the presence of 5% CO2. 15 µL of CPT, liposomal CPT (L-CPT), and empty liposomes (ELs) with CPT were added in concentrations of […] CPT. Lipids were added to each sample (5-25:1 lipid:drug weight ratio). The cells were incubated in the presence of drug for 24 to 120 h. After […] of 5 mg/ml MTT in PBS was added to the samples, the cells were incubated at 37° for 2 h. 100 µL of lysis buffer (50 ml DMF, 20 gm SDS, to total volume 100 ml with water, adjusted to pH 4.7 with NaOH) was added to each well. Plates were incubated for 14h at 37°, then read at 570 nm in a kinetic microplate reader. A dose of 0.1 M blank lipid was used as a control for 100% survival.
(§3) LC-CPT consisting of 12.5:1 DO-NGPE:CPT was used for in vitro assays of cytotoxicity. Lethal cellular injury induced by CPT requires prolonged exposure, cytotoxicity of L-CPT and controls were determined at 24, 72, and 120 hr intervals of continuous drug exposure.

[2] = test system: MDA-Panc3 cells; test: MTT cytotoxicity, MDA-Panc3 cells; format: cell-based, human; conditions: 24-120 h
Procedure: as §1, §2, §3

[3] = Solubility of CPT; format: physicochemical
Text: Some lipophilic drugs such as taxol and taxotere can be solubilized by mild detergents, surfactants and alcohol- containing solutions; however, no similar vehicle has been identified for CPT lactone. […] Solutions containing chloroform and methanol can solubilize CPT, but are too toxic for clinically relevant studies.

[4] = test system: P388 leukemia; test: Survival of mice inoculated IP with P388 leukemia; format: in vivo, mouse (B6D2Fl); conditions: for long-term survivors, percent: FIG. 5b; for % T/C: 24 h after inoculation
[5] = it has been shown; cited from earlier work
[6] = test system: L1210 leukemia; test: Survival of mice inoculated IP with L1210 leukemia; format: in vivo, mouse (B6D2Fl); conditions: for % T/C: 24 h after inoculation
Procedure: In Vivo Protocol. B6D2Fl mice (Charles River Laboratories, Wilmington, Mass., U.S.A.) were injected with […] L1210 leukemia cells via the intraperitoneal route. A single intraperitoneal treatment with ELs, CPT, L-CPT, ELs +CPT was administered 24 hours after tumor inoculation. Five animals were used in each group except for the control group which consisted of 7 untreated mice.
Statistical Considerations. Animal survival data was plotted using the method described by Kaplan and Meier (Kaplan and Meier, 1958):
Because LC-CPT appeared to have improved potency compared to free CPT and LC-CPT caused early death at the highest doses, mice inoculated with L1210 leukemia were treated with doses of 30 to 60 mg/kg free CPT or 10 to 20 mg/kg of LC-CPT (Table 6). […] One animal treated with 15 mg/kg free CPT plus lipid survived 50 days.

[7] = test system: KB cells; test: MTT cytotoxicity, KB cells; format: cell-based, human
Procedure: as §1, §2, §3

[8] = Organ distribution after i.v. administration; format: in vivo, mice
[9] = Chromatographic evaluation of CPT in the liposome fraction; format: physicochemical; conditions: lipid used alone
Procedure: Chromatography. A 30 cm agarose 0.5M column is used to separate liposome-bound drug from free CPT. PBS is used as the mobile phase for all preparations. Twenty samples were collected in 3 mL aliquots for a total of 60 mLs. Fluorescence and scintigraphy were used to detect encapsulated and free drug. Fluorimetry. Aliquots of 20 μl from each collection tube were transferred to cuvets containing 2 ml methanol. Fluorimetry was performed as described by Hart et al. (Hart et al., 1969). Fluorescence was measured at an excitation wavelength of 370 nm and emission wavelength of 434 nm (Perkin-Elmer MPF44A, Norwalk, Conn., U.S.A.). Two ml of ethanol was used as a control for machine calibration.
Chromatographic evaluation confirmed that <5% of CPT was incorporated in the liposome fraction of the preparation, the rest presumably being solubilized or in small particles not detectable by fluorescence microscopy.
(§4) These observation led the present inventors to other negatively charged lipids. […] Chromatographic evaluation of these preparations confirmed again that <5% of CPT eluted with the liposome fraction, the rest of the drug eluting later in a large number of consecutive fractions. By differential centrifugation, the lipid-binding efficiency of cardiolipin was about 67% and that of DO-NGPE 97%. DO-NGPE-CPT was, therefore, selected for further biological and pharmacological studies.

[10] = Lipid-binding efficiency by differential centrifugation; format: physicochemical
Procedure: Determination of Entrapment Efficiency.
A modification of the Ficoll flotation method for separating entrapped from free drug was used (Fraley et al.). […] samples were added to 12×75 mm culture tubes. One ml of 30% Ficoll was layered on the liposome preparation, then one ml of PBS was layered on top of the Ficoll. The tube was spun for 30 min at 3400 rpm in Sorvall GS2-B swing rotor. The percent entrapment was calculated with the formula: [formula]
as §4

[11] = Lipids screened for complexation with CPT (fluorescent microscopy; % bound); format: physicochemical
Text: In order to prepare LC-CPT (a liposomal preparation containing CPT within spherical lipid vesicles) various individual lipids were screened for complexation with CPT. […] CPT crystals and lipid/CPT complexes of >0.4 microns can be visualized under a fluorescent microscope (since CPT fluoresces due to its rigid ring structure). […] Therefore, the better a lipid complexes with CPT the less CPT crystals are formed, and the more lipid/CPT complexes are formed.
Drug/lipid Complex Preparation. CPT was mixed in ratios of from 2:1 to 25:1 w/w lipid:drug in chloroform-methanol (8:1). For studies where CPT was radiolabeled, approximately 0.02 uCi/ml [^3 H] CPT was added to the preparation. Trace quantities of ^14 C labeled cholesterol was added to samples requiring lipid labeling. For small samples, the lipids were dried in 12×75 mm culture tubes under a stream of nitrogen gas. For large samples, a rotavapor (Buchi RE140, Switzerland) was used to dry lipids in a 100 to 1000 ml round bottom flasks. […] For liposomal CPT 0.9% Nace was used. Preparations were screened for lipid entrapment by light and fluorescent microscopy (Nikon Labophot-2, Japan). […]
Lipids of varying carbon chain length, charge, and saturation, alone or in different combinations, were empirically screened for their ability to form liposomes incorporating CPT by fluorescent microscopy.

[12] = test system: KB, MDA-Panc3, and DIFI cell lines; test: MTT cytotoxicity, KB, MDA-Panc3 and DIFI cell lines taken together; format: cell-based, human
Procedure: as §1, §2, §3

Compound: CC[C@@]1(O)C(=O)OCc2c1cc1n(c2=O)Cc2cc3ccccc3nc2-1 [CPT, Camptothecin]
cytotoxicity (in words) ([1]; 24-120 h): significantly more toxic to cells at a concentration of 1M compared to 0.1M
cellular viability ([1]; 120 h): approximately 40%
cytotoxicity (in words) [2]: modestly sensitive; also recorded: significantly more toxic to cells at a concentration of 1 μmol compared to 0.1 μmol; also recorded: somewhat more sensitive to CPT at 24 h than DIFI cells
aqueous solubility (in words) [3]: poor aqueous solubility
solubility in DMSO, Tween-20, cremophor, and methanol (in words) ([3]; CPT lactone): crystallization and precipitation of drug occurs
long-term survivors, percent ([4]; IP, 20 mg/Kg): 20%
long-term survivors, percent ([4]; IP, 40 mg/Kg): 60%
treatment-related deaths / toxicity at 40 mg/kg ([4]; IP, 40 mg/kg CPT): one treatment related death (day 8)
antitumor activity, P388 (in words) ([4]; P388, IP): No activity
50-day survivors ([4]; P388, IP, 10 mg/kg CPT): none
% T/C ([4]; P388, IP, 10 mg/kg CPT): 121%
50-day survivors ([4]; P388, IP, 20 mg/kg CPT): none
% T/C ([4]; P388, IP, 20 mg/kg CPT): 100%
50-day survivors / long-term survivors ([4]; P388, IP, 40 mg/kg CPT, 40 mg/kg): 3 and 3/5
%T/C, similar antitumor activity compared ([4]; P388, IP, dose not given): 207%
activity of closed-lactone form relative to sodium salt [5]: 10 fold
antitumor activity / survival, L1210 (in words) [6]: inactive
50-day survivors ([6]; 30 mg/kg CPT): 0
% T/C ([6]; 30 mg/kg CPT): 85%
50-day survivors ([6]; 45 mg/kg CPT): 0
% T/C ([6]; 45 mg/kg CPT): 85%
50-day survivors ([6]; 60 mg/kg CPT): 0
% T/C ([6]; 60 mg/kg CPT): 92%
cytotoxicity (in words) ([7]; 24 h): somewhat more sensitive to CPT at 24 h than DIFI cells
cellular viability ([7]; 120 h): approximately 40%
GI Tract level ([8]; 6 hrs, i.v. 10 mg/kg CPT): 2.562 ± 0.515 μg/ml or μg/mg dry tissue
Heart level ([8]; 6 hrs, i.v. 10 mg/kg CPT): 1.458 ± 0.555 μg/ml or μg/mg dry tissue
Kidney level ([8]; 6 hrs, i.v. 10 mg/kg CPT): 0.443 ± 0.164 μg/ml or μg/mg dry tissue
Liver level ([8]; 6 hrs, i.v. 10 mg/kg CPT): 2.077 ± 0.402 μg/ml or μg/mg dry tissue
Lung level ([8]; 6 hrs, i.v. 10 mg/kg CPT): 38.217 ± 3.061 μg/ml or μg/mg dry tissue
GI Tract level ([8]; 24 hrs, i.v. 10 mg/kg CPT): 0.492 ± 0.148 μg/ml or μg/mg dry tissue
Heart level ([8]; 24 hrs, i.v. 10 mg/kg CPT): 0.228 ± 0.092 μg/ml or μg/mg dry tissue
Kidney level ([8]; 24 hrs, i.v. 10 mg/kg CPT): 0.539 ± 0.428 μg/ml or μg/mg dry tissue
Liver level ([8]; 24 hrs, i.v. 10 mg/kg CPT): 0.429 ± 0.124 μg/ml or μg/mg dry tissue
Lung level ([8]; 24 hrs, i.v. 10 mg/kg CPT): 12.276 ± 5.363 μg/ml or μg/mg dry tissue
drug level in the lungs, free CPT relative to LC-CPT ([8]; i.v.): about 180 -fold
biodistribution / clearance (in words) ([8]; i.v., mice, listed as free CPT): rapidly cleared from the blood; also recorded: Heart and kidney levels of free CPT were higher than those of LC-CPT
concentration at 6 h ([8]; mouse, in vivo, iv, 6 hrs, i.v. 10 mg/kg CPT, read-out: Blood level): 0.069 ± 0.039 µg/mL
concentration at 24 h ([8]; mouse, in vivo, iv, 24 hrs, i.v. 10 mg/kg CPT, read-out: Blood level): 0.008 ± 0.012 µg/mL

CPT incorporated in / eluted with the liposome fraction [9]: < 5%
lipid-binding efficiency [10]: 97%
Crystals ([11]; Table 1, lipid alone with CPT, fluorescent microscopy): no
Compound: CCCCCCCC/C=C\CCCCCCCC(=O)OCC(COP(=O)(O)OCCNC(=O)CCCC(=O)O)OC(=O)CCCCCCC/C=C\CCCCCCCC (centres unmarked) [Dioleoyl-NGPE, dioleoyl-N-glutaryl-phosphatidyl ethanolamine]
interaction with CPT (in words) ([11]; listed as DO-NGPE): homogeneous and milky preparations devoid of drug crystals; also recorded: most favorable interaction
antitumor activity in vitro (in words) [12]: does not appear to have any intrinsic antitumor activity and does not inhibit the effects of CPT
